Results on 20 compounds are retold here after PubChem BioAssay (NCI).

The TGI is the concentration giving total growth inhibition. Low values mean more potent growth arrest, high ones less potent growth arrest.

Test systems include HS 578T breast; UO-31 renal; NCI-H226 lung; T-47D breast; MDA-N; CAKI-1 renal; MALME-3M melanoma; SF-268 CNS; RXF 393 renal; HOP-92 NSCLC.
Holding throughout (experiment): DTP human tumour cell line panel, 48 h

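These data come from cells grown in 96-well plates and exposed to compound for 48 hours at five concentrations. TGI is the concentration that stops growth completely.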

As to `COc1ccc(C(=C(I)c2ccccc2)c2ccc(OC)cc2)cc1`, the total growth inhibition concentration (TGI) in the experiment with HS 578T breast, in the experiment on UO-31 renal, in the experiment on NCI-H226 lung, in the experiment with T-47D breast, in the experiment with MDA-N and in the experiment on CAKI-1 renal was more than 100 µM in each case. The TGI in the experiment with MALME-3M melanoma, in the experiment on SF-268 CNS, in the experiment on RXF 393 renal and in the experiment on HOP-92 NSCLC was more than 100 µM each time.
Turning to `NCCNCCCCCCNC(=O)c1cccc2cc3ccccc3nc12`, the total growth inhibition concentration (TGI) in the experiment with HS 578T breast was determined as 6 µM; with UO-31 renal, 17.2 µM; in the experiment with NCI-H226 lung it was 5.02 µM; in the experiment with T-47D breast it was 21.5 µM; in the experiment with MDA-N it was 7.13 µM; in the experiment with CAKI-1 renal, 18.5 µM. For the same compound, the concentration for total growth inhibition (TGI) in the experiment on MALME-3M melanoma turned out to be 7.92 µM; with SF-268 CNS, 9.93 µM; with RXF 393 renal, 9.68 µM; in the experiment with HOP-92 NSCLC, 9.28 µM.
For `CCCC(CC)c1c(O)c(O)c(C(CC)CCC)c(C(CC)CCC)c1C(CC)CCC` (stereo not given), the TGI in the experiment with HS 578T breast, in the experiment with UO-31 renal, in the experiment with NCI-H226 lung, in the experiment with T-47D breast, in the experiment with MDA-N and in the experiment with CAKI-1 renal was more than 10 µM in each case. In addition, the TGI in the experiment on MALME-3M melanoma, with SF-268 CNS, in the experiment with RXF 393 renal and in the experiment on HOP-92 NSCLC was more than 10 µM each time.
In the case of `N#Cc1c(N2CCCC2)ncn(Cc2ccccc2)c1=S`, the TGI in the experiment with HS 578T breast, in the experiment with UO-31 renal, in the experiment on NCI-H226 lung, in the experiment with T-47D breast, in the experiment on MDA-N and in the experiment on CAKI-1 renal was more than 100 µM each time. Moreover, the total growth inhibition concentration (TGI) is more than 100 µM in the experiment on MALME-3M melanoma, more than 100 µM with SF-268 CNS, more than 100 µM in the experiment with RXF 393 renal and 99.3 µM in the experiment with HOP-92 NSCLC.
For `c1cc(C[S+]2CCCC2)ccc1C[S+]1CCCC1`, the concentration for total growth inhibition (TGI) with HS 578T breast, with UO-31 renal, in the experiment on NCI-H226 lung, with T-47D breast, with MDA-N and with CAKI-1 renal was more than 100 µM in each case. The total growth inhibition concentration (TGI) in the experiment with MALME-3M melanoma, with SF-268 CNS, in the experiment with RXF 393 renal and in the experiment on HOP-92 NSCLC was more than 100 µM throughout.
`COc1c(OC)c(O)c2c(=O)c(OC)c(-c3ccc4c(c3)OCO4)oc2c1O`: the total growth inhibition concentration (TGI) in the experiment on HS 578T breast, in the experiment with UO-31 renal, in the experiment with NCI-H226 lung, in the experiment with T-47D breast, with MDA-N and in the experiment with CAKI-1 renal was more than 100 µM each time. Besides, the TGI in the experiment on MALME-3M melanoma, with SF-268 CNS, in the experiment with RXF 393 renal and in the experiment on HOP-92 NSCLC was more than 100 µM each time.
Turning to `C=CC(C)(C)N[C@@H](C(=O)N1CCC[C@H]1c1nc(-c2nc(C(=O)OCC=C(C)C)c(C)o2)c(C)o1)C(C)C`, the total growth inhibition concentration (TGI) was 40.2 µM in the experiment with HS 578T breast; 38.3 µM with UO-31 renal; 35.6 µM in the experiment on NCI-H226 lung; 73.4 µM in the experiment on T-47D breast; 38.4 µM in the experiment with MDA-N; more than 100 µM with CAKI-1 renal. Besides, the TGI in the experiment with MALME-3M melanoma worked out at 39 µM; in the experiment with SF-268 CNS, 46.9 µM; with RXF 393 renal, 91.8 µM; in the experiment on HOP-92 NSCLC, 35 µM.
As for `COCN1CCN=c2c1c1c3c(c4ccccc4n23)CCC1`, the concentration for total growth inhibition (TGI) with HS 578T breast, with UO-31 renal, in the experiment on NCI-H226 lung, in the experiment with T-47D breast, in the experiment with MDA-N and with CAKI-1 renal was more than 100 µM in each case. Also, the total growth inhibition concentration (TGI) with MALME-3M melanoma, with SF-268 CNS, in the experiment with RXF 393 renal and in the experiment with HOP-92 NSCLC was more than 100 µM throughout.
`N#CC(C#N)=Cc1c(O)ccc2ccccc12`: the TGI stood at 55.5 µM in the experiment with HS 578T breast; 28.5 µM in the experiment with UO-31 renal; 50 µM in the experiment with NCI-H226 lung; 46.4 µM in the experiment with T-47D breast; 30.5 µM with MDA-N; 29.1 µM in the experiment with CAKI-1 renal. Also, the total growth inhibition concentration (TGI) in the experiment on MALME-3M melanoma is 39.8 µM; in the experiment on SF-268 CNS, 33.1 µM; in the experiment on RXF 393 renal, 31.2 µM; in the experiment with HOP-92 NSCLC, 23.4 µM.
Regarding `COc1ccc(/C=C(\C(=C/c2ccc(OC)cc2)[N+](=O)[O-])[N+](=O)[O-])cc1`, the TGI with HS 578T breast worked out at 43.9 µM; with UO-31 renal it was 16.7 µM; in the experiment on NCI-H226 lung it was 33 µM; in the experiment on T-47D breast it was 35.7 µM; in the experiment on MDA-N, 8.89 µM; with CAKI-1 renal, 8.87 µM. The total growth inhibition concentration (TGI) is 11.9 µM with MALME-3M melanoma, 20.8 µM in the experiment with SF-268 CNS, 4.33 µM in the experiment on RXF 393 renal and 10 µM in the experiment with HOP-92 NSCLC.
In the case of `COc1cc(/C=C2\N=C(c3ccccc3)N(/N=C3\C(=O)Nc4ccccc43)C2=O)cc(OC)c1OC`, the TGI in the experiment with HS 578T breast, with UO-31 renal, with NCI-H226 lung, in the experiment on T-47D breast, in the experiment on MDA-N and with CAKI-1 renal was more than 100 µM throughout. The total growth inhibition concentration (TGI) with MALME-3M melanoma, with SF-268 CNS, in the experiment on RXF 393 renal and in the experiment on HOP-92 NSCLC was more than 100 µM each time.
Take `CC(C)(C)n1c(=O)n(C(=O)C(Cl)(Cl)Cl)n(C(=O)C(Cl)(Cl)Cl)c1=O`: the concentration for total growth inhibition (TGI) in the experiment on HS 578T breast, in the experiment on UO-31 renal, in the experiment with NCI-H226 lung, in the experiment on T-47D breast, in the experiment on MDA-N and in the experiment on CAKI-1 renal was more than 100 µM throughout. Further, the concentration for total growth inhibition (TGI) in the experiment on MALME-3M melanoma, in the experiment with SF-268 CNS, in the experiment with RXF 393 renal and in the experiment with HOP-92 NSCLC was more than 100 µM throughout.
As for `CCOC(=O)C1=C(C)C(C(=O)OC)/C(=C/c2cccc3cccnc23)C1=O` (stereo not given), the TGI in the experiment with HS 578T breast, with UO-31 renal, in the experiment on NCI-H226 lung, in the experiment on T-47D breast, with MDA-N and in the experiment with CAKI-1 renal was more than 10 µM each time. Further, the TGI in the experiment with MALME-3M melanoma, in the experiment with SF-268 CNS, with RXF 393 renal and in the experiment with HOP-92 NSCLC was more than 10 µM in each case.
On to `O=C1CSC2=NCC3(NN12)c1ccccc1-c1ccccc13`, for which the TGI with HS 578T breast, in the experiment on UO-31 renal, in the experiment with NCI-H226 lung, in the experiment on T-47D breast, in the experiment with MDA-N and in the experiment with CAKI-1 renal was more than 10 µM throughout. In addition, the TGI in the experiment on MALME-3M melanoma, in the experiment on SF-268 CNS, in the experiment on RXF 393 renal and in the experiment with HOP-92 NSCLC was more than 10 µM throughout.
As to `COc1ccc2c(c1)nc1n2C(N)=Nc2ccccc2S1`, the concentration for total growth inhibition (TGI) in the experiment with HS 578T breast is more than 100 µM; in the experiment with UO-31 renal, more than 100 µM; in the experiment on NCI-H226 lung, more than 100 µM; with T-47D breast it was more than 92.3 µM; in the experiment on MDA-N it was more than 100 µM; in the experiment on CAKI-1 renal it was more than 100 µM. The TGI in the experiment with MALME-3M melanoma was more than 100 µM; in the experiment with SF-268 CNS, more than 100 µM; in the experiment on RXF 393 renal it was more than 78.3 µM; with HOP-92 NSCLC, 63.5 µM.
Regarding `CN(C)CCOC(=O)c1ccc(N)cc1`, the TGI in the experiment with HS 578T breast is more than 100 µM; in the experiment with UO-31 renal, more than 100 µM; with NCI-H226 lung, 67.4 µM; in the experiment with T-47D breast it was more than 100 µM; in the experiment with MDA-N it was more than 100 µM; in the experiment with CAKI-1 renal, more than 100 µM. Moreover, the TGI in the experiment on MALME-3M melanoma is more than 100 µM; with SF-268 CNS, more than 100 µM; with RXF 393 renal, more than 100 µM; in the experiment with HOP-92 NSCLC, 49.5 µM.
For the compound `O=C(c1ccccc1)c1c(C(F)(F)F)n([O-])c2cc(Cl)c(Cl)cc2[n+]1=O`, the concentration for total growth inhibition (TGI) came out at 2.9 µM in the experiment on HS 578T breast; 4.21 µM in the experiment with UO-31 renal; 13.7 µM in the experiment with NCI-H226 lung; 3.03 µM with T-47D breast; 4.17 µM in the experiment with MDA-N; 2.93 µM in the experiment with CAKI-1 renal. Further, the total growth inhibition concentration (TGI) with MALME-3M melanoma came to 5.33 µM; in the experiment on SF-268 CNS it was 1.41 µM; in the experiment with RXF 393 renal it was 5.52 µM; with HOP-92 NSCLC, 19.9 µM.
As for `COC(=O)/C=C\C(C#N)(C#N)N=Cc1ccc(C)s1`, the concentration for total growth inhibition (TGI) in the experiment on HS 578T breast worked out at 43.6 µM; in the experiment with UO-31 renal, 3.53 µM; in the experiment on NCI-H226 lung, 31.4 µM; in the experiment with T-47D breast it was 3.92 µM; with MDA-N, 6.94 µM; in the experiment with CAKI-1 renal it was 4.78 µM. For the same compound, the TGI in the experiment on MALME-3M melanoma is 3.09 µM; in the experiment with SF-268 CNS, 19.1 µM; with RXF 393 renal it was 3.42 µM; in the experiment with HOP-92 NSCLC, 3.24 µM.
On to `CC1CC[C@@]2(OC1)O[C@H]1C[C@H]3[C@@H]4CC[C@H]5C[C@@H](OC6OC(CO)C(OC7OC(CO)C(OC8OC(CO)C(O)C(OC9OC(C)C(OC%10OC(C)C(O)C(O)C%10O)C(O)C9O)C8OC8OCC(O)C(O)C8O)C(O)C7O)C(O)C6O)CC[C@]5(C)[C@H]4CC(=O)[C@]3(C)[C@H]1[C@@H]2C` (stereo not given in full), for which the TGI in the experiment on HS 578T breast worked out at 50.7 µM; with UO-31 renal, 44.5 µM; with NCI-H226 lung, 35.5 µM; in the experiment with T-47D breast it was 43.2 µM; in the experiment on MDA-N, 39.4 µM; in the experiment on CAKI-1 renal, 29.3 µM. The TGI in the experiment on MALME-3M melanoma came out at 41.3 µM; in the experiment on SF-268 CNS it was 56.9 µM; in the experiment on RXF 393 renal it was 35.7 µM; in the experiment on HOP-92 NSCLC it was 38.2 µM.
On to `COc1ccc(/C=C2\CC3C4CC=C5C[C@@H](O)CC[C@]5(C)C4CC[C@]3(C)\C2=N\O)cc1OC` (stereo not given in full), for which the TGI is more than 100 µM with HS 578T breast; 9.97 µM in the experiment with UO-31 renal; more than 100 µM with NCI-H226 lung; more than 100 µM with T-47D breast; more than 100 µM in the experiment with MDA-N; more than 100 µM in the experiment on CAKI-1 renal. Further, the concentration for total growth inhibition (TGI) with MALME-3M melanoma, in the experiment on SF-268 CNS, in the experiment on RXF 393 renal and in the experiment on HOP-92 NSCLC was more than 100 µM in each case.
